Measured values reported in patent US20090270407A1, “FUNGICIDAL ISOXAZOLIDINES” (E. I. DU PONT DE NEMOURS AND COMPANY, priority 2008, published 2009).
Marks after values point to notes of the source that are not given here.

Columns and labels:
Conditions in all cases: 100 = 100 % disease control, 0 = no disease control relative to controls
Alternaria solani = assay: Test F: tomato early blight, preventive spray on tomato seedlings, visual disease rating
Source text: (§1) General protocol for preparing test suspensions for Tests A-I: The test compounds were first dissolved in acetone in an amount equal to 3% of the final volume and then suspended at the desired concentration (in ppm) in acetone and purified water (50/50 mix) containing 250 ppm of the surfactant Trem® 014 (polyhydric alcohol esters). The resulting test suspensions were then used in Tests A-I. Spraying a 200 ppm test suspension to the point of run-off on the test plants was the equivalent of a rate of 500 g/ha. (An asterisk “*” next to the rating value indicates a 40 ppm test suspension.)
The test suspension was sprayed to the point of run-off on tomato seedlings. The following day the seedlings were inoculated with a spore suspension of Alternaria solani (the causal agent of tomato early blight) and incubated in a saturated atmosphere at 27° C. for 48 h, and then moved to a growth chamber at 20° C. for 5 days, after which time visual disease ratings were made.
A dash (−) indicates no test results. All results are for 200 ppm except where followed by “*” which indicates 40 ppm.

[1] = system: Erysiphe graminis f. sp. tritici; assay: Test A: wheat powdery mildew, preventive spray on wheat seedlings, visual disease rating
Source text: as §1
The test suspension was sprayed to the point of run-off on wheat seedlings. The following day the seedlings were inoculated with a spore dust of Erysiphe graminis f. sp. tritici (the causal agent of wheat powdery mildew) and incubated in a growth chamber at 20° C. for 8 days, after which time visual disease ratings were made.

Septoria tritici = assay: Test D: wheat leaf blotch, preventive spray on wheat seedlings, visual disease rating; assay type: in vivo
Source text: A dash (−) indicates no test results.

[2] = system: Puccinia recondita f. sp. tritici; assay: Test B: wheat leaf rust, preventive spray on wheat seedlings, visual disease rating
Source text: (§2) General protocol for preparing test suspensions for Tests A-I: The test compounds were first dissolved in acetone in an amount equal to 3% of the final volume and then suspended at the desired concentration (in ppm) in acetone and purified water (50/50 mix) containing 250 ppm of the surfactant Trem® 014 (polyhydric alcohol esters). The resulting test suspensions were then used in Tests A-I. Spraying a 200 ppm test suspension to the point of run-off on the test plants was the equivalent of a rate of 500 g/ha.
The test suspension was sprayed to the point of run-off on wheat seedlings. The following day the seedlings were inoculated with a spore suspension of Puccinia recondita f. sp. tritici (the causal agent of wheat leaf rust) and incubated in a saturated atmosphere at 20° C. for 24 h, and then moved to a growth chamber at 20° C. for 7 days, after which time visual disease ratings were made.
(§3) All results are for 200 ppm except where followed by “*” which indicates 40 ppm.

Botrytis cinerea = assay: Test E: tomato Botrytis, preventive spray on tomato seedlings, visual disease rating
Source text: as §2
The test suspension was sprayed to the point of run-off on tomato seedlings. The following day the seedlings were inoculated with a spore suspension of Botrytis cinerea (the causal agent of tomato Botrytis) and incubated in saturated atmosphere at 20° C. for 48 h, and then moved to a growth chamber at 24° C. for 3 additional days, after which time visual disease ratings were made.
as §3

Septoria nodorum = assay: Test C: wheat glume blotch, preventive spray on wheat seedlings, visual disease rating

Structure (SMILES)	Test F disease control rating (Alternaria solani; 200 ppm) [%]	Test A disease control rating ([1]; 200 ppm) [%]	Test D disease control rating (Septoria tritici; 200 ppm) [%]	Test B disease control rating ([2]; 200 ppm) [%]	Test E disease control rating (Botrytis cinerea; 200 ppm) [%]	Test C disease control rating (Septoria nodorum; 200 ppm) [%]	Test F disease control rating (Alternaria solani; 40 ppm (marked *))	Test A disease control rating ([1]; 40 ppm (marked *))	Test D disease control rating (Septoria tritici; 40 ppm (marked *))	Test B disease control rating ([2]; 40 ppm (marked *))	Test E disease control rating (Botrytis cinerea; 40 ppm (marked *))	Test C disease control rating (Septoria nodorum; 40 ppm (marked *))
CN1OC(C)(c2cccnc2)CC1c1cccc2ccccc12 (mixture of isomers) [Compound 62]	91	97	80	17	88	97	–	–	–	–	–	–
CN1OC(C)(c2cccnc2)CC1c1ccc(-c2ccnn2CC(F)(F)F)cc1 (mixture of isomers) [Compound 63]	8	21	36	0	0	0	–	–	–	–	–	–
COc1ccc(C2CC(C)(c3cccnc3)ON2C)c2ccccc12 (mixture of isomers) [Compound 68]	0	0	65	0	0	0	–	–	–	–	–	–
CN1OC(C)(c2cccnc2)CC1c1ccc(-c2ccn(CC(F)(F)F)n2)cc1 (mixture of isomers) [Compound 80]	0	0	94	0	0	0	–	–	–	–	–	–
CN1OC(C)(c2cccnc2)CC1c1cccc(I)c1 (mixture of isomers) [Compound 87]	0	0	84	0	0	0	–	–	–	–	–	–
CN1OC(C)(c2cccnc2)CC1c1ccccc1I (mixture of isomers) [Compound 88]	0	81	70	27	0	0	–	–	–	–	–	–
CN1OC(C)(c2cccnc2)CC1c1cccc2c1OC(F)(F)O2 (mixture of isomers) [Compound 89]	16	0	36	0	0	0	–	–	–	–	–	–
CN(C)c1ccc(C2CC(C)(c3cccnc3)ON2C)c2ccccc12 (mixture of isomers) [Compound 90]	0	0	35	0	0	0	–	–	–	–	–	–
Cc1cccc(C2CC(C)(c3cccnc3)ON2C)c1 (mixture of isomers) [Compound 98]	–	–	–	–	–	–	0* %	0* %	3* %	0* %	0* %	0* %
Cc1ccccc1C1CC(C)(c2cccnc2)ON1C (mixture of isomers) [Compound 99]	0	0	18	17	0	0	–	–	–	–	–	–
COc1ccccc1C1CC(C)(c2cccnc2)ON1C (mixture of isomers) [Compound 100]	8	21	13	0	26	0	–	–	–	–	–	–
COC(=O)c1ccc(C2CC(C)(c3cccnc3)ON2C)cc1 (stereo not drawn) [Compound 39]	0	88	32	0	90	51	–	–	–	–	–	–
CN1OC(C)(c2cccnc2)CC1c1ccc(-n2ccc(-c3ccccc3)n2)cc1 (stereo not drawn) [Compound 40]	–	–	–	–	–	–	0* %	78* %	77* %	0* %	75* %	64* %
CN1OC(C)(c2cccnc2)CC1c1ccc(-n2ccc(-c3ccccc3)n2)cc1 (stereo not drawn) [Compound 41]	–	–	–	–	–	–	0* %	78* %	65* %	0* %	0* %	0* %
Cc1ccn(-c2ccc(C3CC(C)(c4cccnc4)ON3C)cc2)n1 (stereo not drawn) [Compound 42]	–	–	–	–	–	–	97* %	71* %	88* %	9* %	99* %	100* %
Cc1ccn(-c2ccc(C3CC(C)(c4cccnc4)ON3C)cc2)n1 (stereo not drawn) [Compound 43]	–	–	–	–	–	–	52* %	0* %	79* %	0* %	88* %	90* %
CN1OC(c2cccnc2)(C(F)(F)F)CC1c1ccc(-n2ccc(C(F)(F)F)n2)cc1 (stereo not drawn) [Compound 44]	–	–	–	–	–	–	0* %	100* %	89* %	19* %	0* %	69* %
CN1OC(c2cccnc2)(C(F)(F)F)CC1c1ccc(-n2ccc(C(F)(F)F)n2)cc1 (stereo not drawn) [Compound 45]	–	–	–	–	–	–	0* %	96* %	52* %	0* %	0* %	0* %
CN1OC(C)(c2cccnc2)CC1c1ccc(-n2ccc(-c3cccs3)n2)cc1 (stereo not drawn) [Compound 46]	–	–	–	–	–	–	0* %	0* %	62* %	0* %	78* %	0* %
CN1OC(C)(c2cccnc2)CC1c1ccc(-n2ccc(-c3cccs3)n2)cc1 (stereo not drawn) [Compound 47]	–	–	–	–	–	–	0* %	35* %	42* %	0* %	0* %	0* %
CN1OC(C)(c2cccnc2)CC1c1ccc(-n2ccc(-c3ccc(Br)cc3)n2)cc1 (stereo not drawn) [Compound 48]	–	–	–	–	–	–	0* %	61* %	43* %	0* %	20* %	0* %
CN1OC(C)(c2cccnc2)CC1c1ccc(-n2ccc(-c3ccc(Br)cc3)n2)cc1 (stereo not drawn) [Compound 49]	–	–	–	–	–	–	0* %	61* %	27* %	0* %	0* %	0* %
